According to patent US8088763B2 (priority 2004, dated 2012):

Legend:
[1] = biological target: T1, 5HT-uptake (Rattus norvegicus, UniProt P31652); assay: biochemical; conditions: read-out: 5HT-uptake [10 μM], % inhibition
T1 construct: synaptosomes were freshly isolated from areas of rats' brains

[2] = biological target: NA-uptake (Rattus norvegicus, UniProt Q63380); assay: biochemical; conditions: read-out: NA-uptake [10 μM], % inhibition
Sequence of NA-uptake (Q63380 1-617): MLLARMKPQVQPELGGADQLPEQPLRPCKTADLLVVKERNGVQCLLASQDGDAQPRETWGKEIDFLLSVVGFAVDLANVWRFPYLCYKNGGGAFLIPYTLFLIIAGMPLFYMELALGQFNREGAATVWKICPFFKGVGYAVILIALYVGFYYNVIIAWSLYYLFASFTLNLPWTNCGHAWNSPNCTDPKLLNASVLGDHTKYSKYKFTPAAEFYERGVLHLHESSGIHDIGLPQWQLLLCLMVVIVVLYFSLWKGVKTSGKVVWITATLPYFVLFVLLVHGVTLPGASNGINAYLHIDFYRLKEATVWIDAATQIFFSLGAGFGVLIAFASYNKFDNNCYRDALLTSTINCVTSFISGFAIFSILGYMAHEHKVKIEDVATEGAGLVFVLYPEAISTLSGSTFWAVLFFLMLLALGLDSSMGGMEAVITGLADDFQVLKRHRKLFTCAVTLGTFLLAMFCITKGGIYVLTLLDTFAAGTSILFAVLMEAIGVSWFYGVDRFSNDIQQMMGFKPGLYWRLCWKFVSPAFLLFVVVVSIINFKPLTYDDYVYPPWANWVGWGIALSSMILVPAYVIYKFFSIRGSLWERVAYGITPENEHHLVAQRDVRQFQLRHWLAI

T1 sequence (P31652 whole entry): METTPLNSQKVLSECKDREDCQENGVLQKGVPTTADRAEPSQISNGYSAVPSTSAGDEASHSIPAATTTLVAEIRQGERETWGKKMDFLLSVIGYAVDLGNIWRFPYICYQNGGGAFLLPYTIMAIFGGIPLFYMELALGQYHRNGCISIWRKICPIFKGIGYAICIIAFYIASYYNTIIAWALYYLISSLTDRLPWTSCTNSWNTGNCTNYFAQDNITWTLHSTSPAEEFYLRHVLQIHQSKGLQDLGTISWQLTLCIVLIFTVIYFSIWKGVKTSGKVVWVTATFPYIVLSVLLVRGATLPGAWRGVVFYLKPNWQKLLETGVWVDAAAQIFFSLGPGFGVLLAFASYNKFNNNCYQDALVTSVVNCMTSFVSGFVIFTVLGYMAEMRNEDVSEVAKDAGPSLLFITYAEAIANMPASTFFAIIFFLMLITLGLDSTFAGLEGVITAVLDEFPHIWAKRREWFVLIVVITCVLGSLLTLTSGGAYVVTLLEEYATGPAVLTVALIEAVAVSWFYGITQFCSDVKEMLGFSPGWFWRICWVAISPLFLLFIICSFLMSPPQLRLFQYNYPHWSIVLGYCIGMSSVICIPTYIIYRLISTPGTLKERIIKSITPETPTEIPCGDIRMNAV

Row | Structure (SMILES) | inhibition at 10 µM [1] [%] | inhibition at 10 µM [2] [%]
1 | Cc1ccc(CC2(N(C)C)CCC(NC(=O)CCC(=O)NC(C)C(C)C)CC2)cc1 (stereo not drawn) [Example 105, N-[4-dimethylamino-4-(4-methyl-benzyl)-cyclohexyl]-N′-(1,2-dimethyl-propyl)-succinamide] | 92 | 90
2 | Cc1cccc(CC2(N(C)C)CCC(NC(=O)CCC(=O)N3CCc4[nH]c5ccc(F)cc5c4C3)CC2)c1 (stereo not drawn) [Example 106, N-[4-dimethylamino-4-(3-methyl-benzyl)-cyclohexyl]-4-(8-fluoro-1,3,4,5-tetrahydro-pyrido[4,3-b]indol-2-yl)-4-oxo-butyramide] | 93 | 98
3 | Cc1cccc(CC2(N(C)C)CCC(NC(=O)CCC(=O)N3CCN(C(=O)c4cccc(Cl)c4)CC3)CC2)c1 (stereo not drawn) [Example 107, 4-[4-(3-chloro-benzoyl)-piperazin-1-yl]-N-[4-dimethylamino-4-(3-methyl-benzyl)-cyclohexyl]-4-oxo-butyramide] | 95 | 106
4 | COc1ccc(NC(=O)CCC(=O)NC2CCC(Cc3ccc(Cl)cc3)(N(C)C)CC2)cc1 (stereo not drawn) [Example 108, N-[4-(4-chloro-benzyl)-4-dimethylamino-cyclohexyl]-N′-(4-methoxy-phenyl)-succinamide] | 94 | 100
5 | Cc1cccc(CC2(N(C)C)CCC(NC(=O)CCC(=O)N(C)CCc3c[nH]c4ccccc34)CC2)c1 (stereo not drawn) [Example 111, N-[4-dimethylamino-4-(3-methyl-benzyl)-cyclohexyl]-N′-[2-(1H-indol-3-yl)-ethyl]-N′-methyl-succinamide] | 96 | 97
6 | Cc1cccc(CC2(N(C)C)CCC(NC(=O)CCC(=O)NC(C)c3ccc(F)cc3)CC2)c1 (stereo not drawn) [Example 112, N-[4-dimethylamino-4-(3-methyl-benzyl)-cyclohexyl]-N′-[1-(4-fluoro-phenyl)-ethyl]-succinamide] | 96 | 101
7 | Cc1cccc(CC2(N(C)C)CCC(NC(=O)CCC(=O)N3CCN(c4ccc(Cl)cc4)CC3)CC2)c1 (stereo not drawn) [Example 113, 4-[4-(4-chloro-phenyl)-piperazin-1-yl]-N-[4-dimethylamino-4-(3-methyl-benzyl)-cyclohexyl]-4-oxo-butyramide] | 97 | 94
8 | CN(C)C1(Cc2cccc(Cl)c2)CCC(NC(=O)CCC(=O)N2CCC3(CC2)C(=O)NCN3c2ccccc2)CC1 (stereo not drawn) [Example 114, N-[4-(3-chloro-benzyl)-4-dimethylamino-cyclohexyl]-4-oxo-4-(4-oxo-1-phenyl-1,3,8-triaza-spiro[4.5]dec-8-yl)-butyramide] | 99 | 106
9 | Cc1cccc(CC2(N(C)C)CCC(NC(=O)CCC(=O)NC(C)c3ccc4ccccc4c3)CC2)c1 (stereo not drawn) [Example 122, N-[4-dimethylamino-4-(3-methyl-benzyl)-cyclohexyl]-N′-(1-naphthalen-2-yl-ethyl)-succinamide] | 93 | 102
10 | COCC(Cc1ccccc1)NC(=O)CCC(=O)NC1CCC(Cc2cccc(Cl)c2)(N(C)C)CC1 (stereo not drawn) [Example 123, N-[4-(3-chloro-benzyl)-4-dimethylamino-cyclohexyl]-N′-(1-methoxymethyl-2-phenyl-ethyl)-succinamide] | 92 | 99
11 | Cc1ccc(CC2(N(C)C)CCC(NC(=O)CCC(=O)NC3CCCc4ccccc43)CC2)cc1 (stereo not drawn) [Example 126, N-[4-dimethylamino-4-(4-methyl-benzyl)-cyclohexyl]-N′-(1,2,3,4-tetrahydro-naphthalen-1-yl)-succinamide] | 93 | 84
12 | CN(C)C1(Cc2cccc(Cl)c2)CCC(NC(=O)CCC(=O)NCc2cc(Cl)ccc2Cl)CC1 (stereo not drawn) [Example 133, N-[4-(3-chloro-benzyl)-4-dimethylamino-cyclohexyl]-N′-(2,5-dichloro-benzyl)-succinamide] | 93 | 97
